Measured values taken from US9757408B2 (Hayashibara Co., Ltd., priority 2010, dated 2017).
Marks after values point to notes of the source that are not given here.

How the values were obtained:
[1] = system: mice with bacterial shock induced by LPS; assay: LPS bacterial shock mice, survival, ANO, adenosine or inosine i.v. (Experiment 9); type: in vivo, BALB/c mice; details: LPS 18 mg/kg i.p.
Method: An LPS specimen derived from E. coli (055:B5), commercialized by Sigma-Aldrich Corporation, St. Louis, Mo. USA, was dissolved in PBS and intraperitoneally administered to all the seven mice in the four groups at a dose of 18 mg/kg body weight. […] Seven mice in the remaining one group were intravenously administered with PBS as a control in a volume of 0.2 mL/head (Experiment group 1). For each group, the survival number of mice was confirmed up to 7 to 43 hours after administering LPS and the survival rate (%) of mice in each group was determined.

[2] = system: mouse with severe acute pancreatitis induced by choline-deficient ethionine-added feed; assay: Severe acute pancreatitis induced by choline-deficient ethionine-added feed, survival (Experiment 15); type: in vivo, CD1(ICR) mice
Source text: After seven days of a preliminary breeding, the mice were fasted for one day and allowed to freely take a choline-deficient ethionine-added feed, produced by Oriental Yeast Co., Ltd., Tokyo, Japan, for three days from the next day. Thereafter, the mice were fed on normal feed again and then fed on the choline-deficient ethionine-added feed. […] Eight mice in the remaining one group as a control were orally administered through a gastric tube with distilled water twice a day every morning and evening in a liquid volume of 0.2 mL/head/shot from the initiation of fasting. The survival number of mice in each group was macroscopically confirmed up to seven days from the initiation of taking the choline-deficient ethionine-added feed, and the survival rate (%) of mice in each group was determined. The survival rate (%) of mice was determined similarly as in Experiment 1.

[3] = system: picryl chloride-sensitized mice; assay: Picryl chloride-sensitized mice atopic dermatitis, skin score (Experiment 16); type: in vivo, NC/Nga mice; details: for Skin score, 21 days after the day of sensitizing with picryl chloride: gel on dorsal skin twice a day (ANO 14 mg/mL, AN or IN 13 mg/mL, prednisolone 6.7 mg/mL from 3rd induction week), day 21; for Skin score, 24 days after the day of sensitizing with picryl chloride / Skin score, 28 days after the day of sensitizing with picryl chloride / Skin score, 31 days after the day of sensitizing with picryl chloride / Skin score, 35 days after the day of sensitizing with picryl chloride / Skin score, 39 days after the day of sensitizing with picryl chloride / Skin score, 42 days after the day of sensitizing with picryl chloride / Skin score, 45 days after the day of sensitizing with picryl chloride: gel on dorsal skin twice a day (ANO 14 mg/mL, AN or IN 13 mg/mL, prednisolone 6.7 mg/mL); for Skin score, 24 days after the day of sensitizing with picryl chloride: day 24; for Skin score, 28 days after the day of sensitizing with picryl chloride: day 28; for Skin score, 31 days after the day of sensitizing with picryl chloride: day 31; for Skin score, 35 days after the day of sensitizing with picryl chloride: day 35; for Skin score, 39 days after the day of sensitizing with picryl chloride: day 39; for Skin score, 42 days after the day of sensitizing with picryl chloride: day 42; for Skin score, 45 days after the day of sensitizing with picryl chloride: day 45
Source text: (§1) The results are in Table 19 in parallel.

[4] = system: IL-4 production of spleen cells; assay: IL-4 production of spleen cells stimulated with anti-CD3 antibody, from gel-treated mice (Experiment 16); type: in vivo, NC/Nga mice; details: for production level of IL-4 of spleen cells stimulated with the anti-CD3 antibody: compared to mice applied with gel prepared by adding refined water (Experiment group 1); for Content of IL-4: supernatant of spleen cells stimulated with anti-CD3 antibody
Method: (§2) On Friday of the 6th week of the induction (46th day after initiating the application), all the mice were sacrificed, followed by isolating their spleens and collecting spleen cells in usual manner. […] To each well 2 μg/mL of “Purified Mouse CD3ε Monoclonal Antibody”, a product name of an anti-CD3 antibody, commercialized by Cosmo Bio Co., Ltd., Tokyo, Japan, was added, and the cells were incubated at 37° C. for three days in a 5% v/v CO2 incubator, followed by assaying the levels of cytokines in each supernatant thereof.
as §1

[5] = system: IL-6 production of spleen cells; assay: IL-6 production of spleen cells stimulated with anti-CD3 antibody, from gel-treated mice (Experiment 16); type: in vivo, NC/Nga mice; details: for production level of IL-6 of spleen cells stimulated with the anti-CD3 antibody: compared to mice applied with gel prepared by adding refined water (Experiment group 1); for Content of IL-6: supernatant of spleen cells stimulated with anti-CD3 antibody, picryl chloride-sensitized mice applied with gel
Method: as §2, §1

[6] = system: NHEK cells; assay: Cytotoxicity (released LDH) of NHEK cells irradiated with ultraviolet B (Experiment 17); type: cell-based, human; details: for LDH Activity: NHEK cells, stimulation by ultraviolet rays
[7] = system: TNF-α production from NHEK cells; assay: TNF-α production from NHEK cells irradiated with ultraviolet B (Experiment 17); type: cell-based, human; details: for TNF-α: NHEK cells, stimulation by ultraviolet rays; for production of TNF-α from NHEK cells induced by ultraviolet rays: UVB 40 mJ/cm^2, supernatant at six hours
Method: (§3) “CELLMATRIX TYPE IV”, a product name of collagen for tissue culture commercialized by Nitta Gelatin Inc., Osaka, Japan, which had been diluted with PBS(K-) by 10 times, was previously placed in “FALCON 35-3001”, a product name of 35 mm petri dish commercialized by Becton Dickinson and Company, NJ, USA, in an amount of 1 mL/plate, and then allowed to stand at ambient temperature for 10 min, followed by removing an excessive amount of CELLMATRIX, drying the petri dish in air, and washing it thrice with PBS(K-). […] The cells were cultured at 37° C. in a 5% v/v CO2 incubator. On the 2nd and 4th days after the cell inoculation, the medium was replaced with EpiLife medium free of EDGS (1 mL/plate). On the 5th day after the cell inoculation, the supernatant was removed, and the petri dish was washed twice by adding 1 mL/petri dish of Hanks' balanced salt solution (called “HBSS (−) buffer”, hereinafter). Further, 2 mL/petri dish of HBSS (−) buffer was added to the petri dish which was then placed in the position 15 cm apart from an ultraviolet ray light source and irradiated with 40 mJ/cm^2 of ultraviolet B radiation. […] As an ultraviolet ray light source, “NS-8F”, a light source for actual use commercialized by Sanwa Medical Co., Ltd., Okayama, Japan, equipped with an ultraviolet B radiation lamp was used, and the radiation dose was measured on “UVR-305/365D (II)”, an ultraviolet ray meter commercialized by Topcon Corporation, Tokyo, Japan. TNF-α was assayed by the same method as in Experiment 2. The remaining other cytokines were assayed with an IL-1α assay kit, commercialized by R & D Systems Inc., MN, USA, and an IL-8 assay kit commercialized by BioLegend, CA, USA.

[8] = system: IL-1α production from NHEK cells; assay: IL-1α production from NHEK cells irradiated with ultraviolet B (Experiment 17); type: cell-based, human; details: for IL-1α: NHEK cells, stimulation by ultraviolet rays; for production of IL-1α from NHEK cells augmented by ultraviolet rays: UVB 40 mJ/cm^2, supernatant at six hours
Method: as §3

[9] = system: TNF-α production from mouse intraperitoneal macrophages; assay: IC50 for TNF-α production from mouse macrophages, LPS + IFN-γ, nucleic acid derivatives (Experiment 19); type: cell-based; details: for IC50: Mus musculus, Macrophage, 20 h, read-out: IC50 Concentration TNF-α
Source text: (§4) After completion of the culture, the supernatant in each well was collected and assayed for cytokines and prostaglandin E2 (called “PGE2”, hereinafter) with ELISA.

[10] = system: IL-6 production from mouse intraperitoneal macrophages; assay: IC50 for IL-6 production from mouse macrophages, LPS + IFN-γ (Experiment 19); type: cell-based; details: for IC50: Mus musculus, Macrophage, 20 h, read-out: IC50 Concentration IL-6
Source text: as §4

[11] = oral 124 mg/kg body weight/shot twice a day
[12] = picryl chloride-sensitized mice applied with gel
[13] = mouse intraperitoneal macrophages stimulated with LPS and IFN-γ
[14] = oral 46 mg/kg body weight/shot twice a day
[15] = oral 139 mg/kg body weight/shot twice a day

## Nc1ncnc2c1ncn2[C@@H]1O[C@H](CO)[C@@H](O)[C@H]1O [AN, adenosine]
[1]; 127 mg/kg i.v. simultaneously
  Survival rate (%) of mice, 7 Hours: 100%
  Survival rate (%) of mice, 19 Hours: 20%
  Survival rate (%) of mice, 26 Hours: 0%
  Survival rate (%) of mice, 43 Hours: 0%
[2]; [11]
  Survival rate (%) of mice, 48 Hours: 100.0%
  Survival rate (%) of mice, 70 Hours: 20.0%
  Survival rate (%) of mice, 78 Hours: 50.0%
  Survival rate (%) of mice, 94 Hours: 25.0%
  Survival rate (%) of mice, 102 Hours: 12.5%
  Survival rate (%) of mice, 144 Hours: 12.5%
[3]
  Skin score, 21 days after the day of sensitizing with picryl chloride: 0.50
  Skin score, 24 days after the day of sensitizing with picryl chloride: 0.50
  Skin score, 28 days after the day of sensitizing with picryl chloride: 2.75
  Skin score, 31 days after the day of sensitizing with picryl chloride: 3.55
  Skin score, 35 days after the day of sensitizing with picryl chloride: 5.56
  Skin score, 39 days after the day of sensitizing with picryl chloride: 5.78
  Skin score, 42 days after the day of sensitizing with picryl chloride: 6.22
  Skin score, 45 days after the day of sensitizing with picryl chloride: 5.50
[4]
  production level of IL-4 of spleen cells stimulated with the anti-CD3 antibody: showed no difference
[4]; [12]
  Content of IL-4: 9.8 ng/mL
[5]
  production level of IL-6 of spleen cells stimulated with the anti-CD3 antibody: showed no difference
  Content of IL-6: 192 ng/mL
[6]; 1 μM
  LDH Activity: 0.35 absorbance
[6]; 5 μM
  LDH Activity: 0.36 absorbance
[6]; 10 μM
  LDH Activity: 0.35 absorbance
[7]; 1 μM
  TNF-α: 144 pg/mL
[7]; 5 μM
  TNF-α: 138 pg/mL
[7]; 10 μM
  TNF-α: 138 pg/mL
[7]
  production of TNF-α from NHEK cells induced by ultraviolet rays: did not influence
[8]; 1 μM
  IL-1α: 243 pg/mL
[8]; 5 μM
  IL-1α: 244 pg/mL
[8]; 10 μM
  IL-1α: 239 pg/mL
[8]
  production of IL-1α from NHEK cells augmented by ultraviolet rays: did not influence
[9]
  IC50: 17.4 µM
[9]; [13]
  inhibitory action on the production of inflammatory cytokines (in words): only a weak inhibitory action
[10]
  IC50: 50.1 µM

## Nc1c2ncn([C@@H]3O[C@H](CO)[C@@H](O)[C@H]3O)c2nc[n+]1[O-] [ANO, adenosine N1-oxide]
[1]; 135 mg/kg i.v. simultaneously
  Survival rate (%) of mice, 7 Hours: 100%
  Survival rate (%) of mice, 19 Hours: 80%
  Survival rate (%) of mice, 26 Hours: 80%
  Survival rate (%) of mice, 43 Hours: 80%
[2]; [14]
  Survival rate (%) of mice, 48 Hours: 100.0%
  Survival rate (%) of mice, 70 Hours: 100.0%
  Survival rate (%) of mice, 78 Hours: 50.0%
  Survival rate (%) of mice, 94 Hours: 25.0%
  Survival rate (%) of mice, 102 Hours: 12.5%
  Survival rate (%) of mice, 144 Hours: 12.5%
[2]; [15]
  Survival rate (%) of mice, 48 Hours: 100.0%
  Survival rate (%) of mice, 70 Hours: 87.5%
  Survival rate (%) of mice, 78 Hours: 75.0%
  Survival rate (%) of mice, 94 Hours: 75.0%
  Survival rate (%) of mice, 102 Hours: 75.0%
  Survival rate (%) of mice, 144 Hours: 75.0%
[3]
  Skin score, 21 days after the day of sensitizing with picryl chloride: 0.75
  Skin score, 24 days after the day of sensitizing with picryl chloride: 1.00
  Skin score, 28 days after the day of sensitizing with picryl chloride: 2.25
  Skin score, 31 days after the day of sensitizing with picryl chloride: 3.38
  Skin score, 35 days after the day of sensitizing with picryl chloride: 4.50
  Skin score, 39 days after the day of sensitizing with picryl chloride: 3.58*
  Skin score, 42 days after the day of sensitizing with picryl chloride: 4.38*
  Skin score, 45 days after the day of sensitizing with picryl chloride: 3.63*
[3]; picryl chloride-sensitized NC/Nga mice, gel application
  recovery of skin wounds in the inflammation-induced part: cure/improvement of wounds induced by inflammation was observed
[4]
  production level of IL-4 of spleen cells stimulated with the anti-CD3 antibody: significantly lower
[4]; spleen cells of gel-treated mice
  production ratio of IL-4/IFN-γ of spleen cells stimulated with the anti-CD3 antibody: close to that of the mice of the normal group
[4]; spleen cells stimulated with anti-CD3 antibody, picryl chloride-sensitized mice applied with gel
  Ratio of IL-4/IFN-γ: 0.32
[4]; [12]
  Content of IL-4: 2.8* ng/mL
[5]
  production level of IL-6 of spleen cells stimulated with the anti-CD3 antibody: significantly lower
  Content of IL-6: 129* ng/mL
[6]; 1 μM
  LDH Activity: 0.32 absorbance
[6]; 5 μM
  LDH Activity: 0.23 absorbance
[6]; 10 μM
  LDH Activity: 0.14 absorbance
[6]; UVB 40 mJ/cm^2, supernatant at four hours
  LDH released from NHEK cells by the stimulation of ultraviolet rays: inhibited LDH released
[7]; 1 μM
  TNF-α: 119 pg/mL
[7]; 5 μM
  TNF-α: 76 pg/mL
[7]; 10 μM
  TNF-α: 76 pg/mL
[7]
  production of TNF-α from NHEK cells induced by ultraviolet rays: inhibited
[8]; 1 μM
  IL-1α: 203 pg/mL
[8]; 5 μM
  IL-1α: 173 pg/mL
[8]; 10 μM
  IL-1α: 140 pg/mL
[8]
  production of IL-1α from NHEK cells augmented by ultraviolet rays: inhibited
[9]
  IC50: 0.3 µM
[10]
  IC50: 0.9 µM
[10]; [13]
  inhibition of the production of IL-6 (in words): strongly inhibited
